Laboratory results published in patent US20240148821A1, “PHARMACEUTICAL USE OF CYCLIC PEPTIDE COMPOUND” (CHUGAI SEIYAKU KABUSHIKI KAISHA, priority 2021, published 2024).
Numbered stars: 1 amine (or outer) side, 2 acyl side, 3 side chain; on linkers, the order of the positions; unused ones are H or OH. Bridge positions count the residues as written; N and C are the ends. Square brackets hold non-standard residues; d marks the D form. Peptide text beside a SMILES is read from it. * marks the point of attachment. hPhe(3-Cl-4-CF3) = N[C@@H](CCc1ccc(C(F)(F)F)c(Cl)c1)C(=O)O; NMePhe(4-CF3) = CN[C@@H](Cc1ccc(C(F)(F)F)cc1)C(=O)O; hPhe(4-CF3) = N[C@@H](CCc1ccc(C(F)(F)F)cc1)C(=O)O; NMePhe(4-Cl) = CN[C@@H](Cc1ccc(Cl)cc1)C(=O)O; NMePhe(4-Me) = CN[C@@H](Cc1ccc(C)cc1)C(=O)O; NMedβ3hAla = C[C@H](CC(=O)[*:2])N(C)[*:1]; Phe(4-Me) = Cc1ccc(C[C@H](N)C(=O)O)cc1; NMeGly(cBu) = CN[C@H](C(=O)O)C1CCC1; Gly(cPent) = N[C@H](C(=O)O)C1CCCC1; NMeCha = CN[C@@H](CC1CCCCC1)C(=O)O; Hyp = O=C(O)[C@@H]1C[C@@H](O)CN1; NMeChg = CN[C@H](C(=O)O)C1CCCCC1; NMeF = CN[C@@H](Cc1ccccc1)C(=O)O; NMeI = CC[C@H](C)[C@H](NC)C(=O)O; NMeT = CN[C@H](C(=O)O)[C@@H](C)O; d(β3hL) = CC(C)C[C@@H](N)CC(=O)O; NMeD = CN[C@@H](CC(=O)O)C(=O)O; NMeL = CN[C@@H](CC(C)C)C(=O)O; NMeV = CN[C@H](C(=O)O)C(C)C; d(β3hA) = C[C@@H](N)CC(=O)O; NAllylGly = C=CCNCC(=O)O; NMeA = CN[C@@H](C)C(=O)O; Piperidide = C1CCN(*)CC1; Ac5c = NC1(C(=O)O)CCCC1; Aze = O=C(O)[C@@H]1CCN1; Sar = CNCC(=O)O

The molecules below were run against protein-protein interaction between Kras and SOS1 (biotin-tagged human Kras loaded with GDP, His-tagged human SOS1) (Homo sapiens (Human), UniProt P01116, G12D) (assay: Protein-protein interaction inhibition between Kras and SOS1 (KrasG12D-SOS PPI) using AlphaScreen). Conditions: AlphaScreen; biotin-tagged human Kras loaded with GDP, His-tagged human SOS1; read-out: KRAS G12D-SOS PPI IC50.
Assay type: biochemical
`CCO[C@@H]1C[C@H]2C(=O)NC3(CCCC3)C(=O)N(C)[C@@H](C3CCCCC3)C(=O)N(C)[C@H](C)CC(=O)N(C)[C@@H](CC(C)C)C(=O)N[C@@H]([C@@H](C)CC)C(=O)N(C)[C@@H](C)C(=O)N3CC[C@H]3C(=O)N(C)[C@@H](Cc3ccc(C(F)(F)F)cc3)C(=O)N(C)CC(=O)N[C@@H](CCc3ccc(C(F)(F)F)c(Cl)c3)C(=O)N2C1` [Compound 652] (cyclo([Ac5c][NMeChg][NMedβ3hAla][NMeL]I[NMeA][Aze][NMePhe(4-CF3)][Sar][hPhe(3-Cl-4-CF3)][Hyp](Et))) was tested, and the IC50 was 0.0043 µM. Work on `CC[C@H](C)[C@@H]1NC(=O)[C@H](CC(C)C)N(C)C(=O)C[C@@H](C(=O)N(C)C)N(C)C(=O)[C@H]([C@@H](C)CC)N(C)C(=O)C2(CCCC2)NC(=O)[C@@H]2CCCN2C(=O)[C@H](CCc2ccc(C(F)(F)F)c(Cl)c2)NC(=O)CN(C)C(=O)[C@H](C2CCC2)N(C)C(=O)[C@@H]2CCN2C(=O)[C@H](C)N(C)C1=O` [Compound 1961] ([NMeL]I[NMeA][Aze][NMeGly(cBu)][Sar][hPhe(3-Cl-4-CF3)]P[Ac5c][NMeI][NMeD]-NMe2; lactam N-11) yielded an IC50 of 0.0018 µM. `CC[C@H](C)[C@@H]1NC(=O)[C@H](C)N(C)C(=O)C[C@@H](C)NC(=O)[C@H](CC(C)C)N(C)C(=O)[C@H](Cc2ccccc2)N(C)C(=O)[C@H](CC(C)C)N(C)C(=O)[C@H](CCc2ccc(C(F)(F)F)cc2)NC(=O)CN(C)C(=O)[C@H](Cc2ccc(Cl)cc2)N(C)C(=O)CN(C)C(=O)CN(C)C1=O` [Compound 546] (cyclo(I[Sar][Sar][NMePhe(4-Cl)][Sar][hPhe(4-CF3)][NMeL][NMeF][NMeL][d(β3hA)][NMeA])) showed an IC50 of 0.13 µM. Molecule `C=CCN1CC(=O)NC2(CCCC2)C(=O)N(C)[C@@H](C2CCCCC2)C(=O)N(C)[C@H](C(=O)N2CCCCC2)CC(=O)N(C)[C@@H](CC(C)C)C(=O)N[C@@H]([C@@H](C)CC)C(=O)N(C)CC(=O)N(C)CC(=O)N(C)[C@@H](CC2CCCCC2)C(=O)N(C)CC(=O)N[C@@H](CCc2ccc(C(F)(F)F)c(Cl)c2)C1=O` [Compound 899] ([NMeL]I[Sar][Sar][NMeCha][Sar][hPhe(3-Cl-4-CF3)][NAllylGly][Ac5c][NMeChg][NMeD]-Piperidide; lactam N-11 (inferred); C-terminus assumed) has an IC50 of 0.0019 µM. Work on `CC[C@H](C)[C@@H]1NC(=O)[C@H](CC(C)C)N(C)C(=O)C[C@@H](C)NC(=O)[C@H](C2CCCC2)NC(=O)C2(CCCC2)NC(=O)[C@@H]2CCCN2C(=O)[C@H](CCc2ccc(C(F)(F)F)c(Cl)c2)NC(=O)CN(C)C(=O)[C@H](Cc2ccc(C)cc2)N(C)C(=O)[C@@H]2CCN2C(=O)[C@H](C)N(C)C1=O` [Compound 1213] (cyclo([Ac5c][Gly(cPent)][d(β3hA)][NMeL]I[NMeA][Aze][NMePhe(4-Me)][Sar][hPhe(3-Cl-4-CF3)]P)) yielded an IC50 of 0.017 µM. Work on `CC[C@H](C)[C@@H]1NC(=O)[C@H](CC(C)C)N(C)C(=O)C[C@@H](C(=O)N2CCCCC2)N(C)C(=O)[C@H](C(C)C)N(C)C(=O)C2(CCCC2)NC(=O)[C@@H]2CCCN2C(=O)[C@H](CCc2ccc(C(F)(F)F)c(Cl)c2)NC(=O)CN(C)C(=O)[C@H](CC2CCCCC2)N(C)C(=O)[C@@H]2CCN2C(=O)[C@H]([C@@H](C)O)N(C)C1=O` [Compound 496] ([NMeL]I[NMeT][Aze][NMeCha][Sar][hPhe(3-Cl-4-CF3)]P[Ac5c][NMeV][NMeD]-Piperidide; lactam N-11) yielded an IC50 of 0.01 µM. With `CC[C@H](C)[C@@H]1NC(=O)[C@H]([C@@H](C)CC)N(C)C(=O)C[C@@H](C(=O)N2CCCCC2)N(C)C(=O)[C@H](C(C)C)N(C)C(=O)C2(CCCC2)NC(=O)[C@@H]2CCCN2C(=O)[C@H](CCc2ccc(C(F)(F)F)c(Cl)c2)NC(=O)CN(C)C(=O)[C@H](CC2CCCCC2)N(C)C(=O)[C@@H]2CCN2C(=O)[C@H](C)N(C)C1=O` [Compound 1863] ([NMeI]I[NMeA][Aze][NMeCha][Sar][hPhe(3-Cl-4-CF3)]P[Ac5c][NMeV][NMeD]-Piperidide; lactam N-11) the IC50 was 0.01 µM. `CC[C@H](C)[C@@H]1NC(=O)[C@H](CC(C)C)N(C)C(=O)C[C@@H](CC(C)C)NC(=O)[C@H]([C@@H](C)CC)N(C)C(=O)C2(CCCC2)NC(=O)[C@@H]2CCCN2C(=O)[C@H](CCc2ccc(C(F)(F)F)c(Cl)c2)NC(=O)CN(C)C(=O)[C@H](Cc2ccc(C)cc2)N(C)C(=O)[C@@H]2CCN2C(=O)[C@H](C)N(C)C1=O` [Compound 1995] (cyclo([Ac5c][NMeI][d(β3hL)][NMeL]I[NMeA][Aze][NMePhe(4-Me)][Sar][hPhe(3-Cl-4-CF3)]P)) showed an IC50 of 0.34 µM. `CC[C@H](C)[C@@H]1NC(=O)[C@H](CC(C)C)N(C)C(=O)C[C@@H](C(=O)N(C)C)N(C)C(=O)[C@H]([C@@H](C)CC)N(C)C(=O)[C@H](C(C)C)NC(=O)[C@@H]2CCCN2C(=O)[C@H](CCc2ccc(C(F)(F)F)c(Cl)c2)NC(=O)CN(C)C(=O)[C@H](Cc2ccc(C)cc2)NC(=O)[C@@H]2CCN2C(=O)[C@H](C)N(C)C1=O` [Compound 660] ([NMeL]I[NMeA][Aze][Phe(4-Me)][Sar][hPhe(3-Cl-4-CF3)]PV[NMeI][NMeD]-NMe2; lactam N-11) was tested, and the IC50 was 0.21 µM.
